From ChEMBL document CHEMBL1828504, “Synthesis and SAR optimization of diketo acid pharmacophore for HCV NS5B polymerase inhibition” (Eur J Med Chem, 2011)

test: Inhibition of recombinant HCV NS5B Cdelta21 polymerase assessed as [alpha-32P]UMP incorporation into RNA after 1 hr by liquid scintillation counting; parameters: species or system Hepacivirus hominis

SMILES	IC50 [µM]
Cc1ccsc1C(=O)/C=C(\O)C(=O)O	7.5
O=C(O)/C(O)=C/C(=O)c1ccco1	21.8
O=C(O)/C(O)=C/C(=O)c1cc2ccccc2o1	29.6
O=C(O)/C(O)=C/C(=O)c1cc2cc(Br)ccc2o1	8.2
O=C(O)/C(O)=C/C(=O)c1cc2ccccc2s1	37.7
O=C(O)/C(O)=C/C(=O)c1cccs1	17.3
Cc1ccc(C(=O)/C=C(\O)C(=O)O)s1	55.5
O=C(O)/C(O)=C/C(=O)c1ccc(Cl)s1	25.5
O=C(O)/C(O)=C/C(=O)c1ccc(Br)s1	31.4
O=C(O)/C(O)=C/C(=O)c1ccc(I)s1	63.9
Cc1csc(C(=O)/C=C(\O)C(=O)O)c1	32.7
O=C(O)/C(O)=C/C(=O)c1nccs1	30.4
O=C(O)/C(O)=C/C(=O)c1ccc[nH]1	21.7
CCOC(=O)/C(O)=C/C(=O)c1n[nH]c2ccccc12	38.4
O=C(O)/C(O)=C/C(=O)c1n[nH]c2ccccc12	24.7
O=C(O)/C(O)=C/C(=O)c1ccc(-c2ccccc2)cc1	20.9
O=C(O)/C(O)=C/C(=O)c1ccccc1[N+](=O)[O-]	11.3
CCOC(=O)/C(O)=C/C(=O)c1ccccc1F	12.4
Cc1ccccc1C(=O)/C=C(\O)C(=O)O	6.9
O=C(O)/C(O)=C/C(=O)c1cccc(F)c1	49.9
N#Cc1cccc(C(=O)/C=C(\O)C(=O)O)c1	39.7
O=C(O)/C(O)=C/C(=O)c1cccc(-c2nnn[nH]2)c1	5.2
O=C(O)/C(O)=C/C(=O)c1c(F)cccc1F	17
O=C(O)/C(O)=C/C(=O)c1ccc(Cl)cc1Cl	49.7
O=C(O)/C(O)=C/C(=O)c1ccc(F)cc1F	2.4
O=C(O)/C(O)=C/C(=O)c1ccccc1F	14.9
